According to the supplement of paper PMC8882468:

How the values were obtained:
Assay in all cases: CTG-3D luminescence at 96 h relative to day-0 seeding control (ratio to day 0); higher = more growth / less cytotoxicity; PDxO 3D drug screen, 96 h, CTG-3D normalised to day-0 seeding control.
HCI-010 = tested on: HCI-010 (organoid from a breast cancer xenograft)
HCI-001 = tested on: HCI-001 (organoid from a triple-negative breast cancer xenograft)
HCI-016 = tested on: HCI-016 (organoid from a triple-negative breast cancer xenograft)
HCI-003.E2 = tested on: HCI-003.E2 (organoid from an ER-positive breast cancer xenograft)

COc1cccc2c1C(=O)c1c(O)c3c(c(O)c1C2=O)C[C@@](O)(C(=O)CO)C[C@@H]3O[C@H]1C[C@H](N)[C@H](O)[C@H](C)O1 [doxorubicin]
CTG-3D luminescence at 96 h
Conditions | 12.5 pM | 0.00025 µM | 0.005 µM | 0.1 µM | 1 µM | 10 µM | 100 µM | 625 fM
HCI-001, days in culture: 240 | 1.83 | 0.976 | 0.995 | 1.06 | 0.795 | 0.102 | 0.0662 | 1.82
HCI-001, days in culture: 260 | 2.69 | 0.99 | 2.06 | 1.71 | 0.863 | 0.169 | 0.0518 | 1.54
HCI-001, days in culture: 269 | 1.42 | 1.69 | 1.45 | 1.69 | 0.478 | 0.0884 | 0.00519 | 1.42
HCI-001, days in culture: 327 | 1.28 | 1.49 | 1.57 | 1.78 | 1.18 | 0.146 | 0.284 | 1.5
HCI-001, days in culture: 346 | 1.4 | 1.22 | 1.02 | 1.01 | 0.949 | 0.141 | 0.182 | 1.14
HCI-001, days in culture: 364 | 1.33 | 1.06 | 1.3 | 0.946 | 0.616 | 0.116 | 0.143 | 1.49
HCI-010, days in culture: 52 | 2.23 | 2.37 | 2.52 | 1.93 | 0.497 | 0.271 | 0.0478 | 2.26
HCI-010, days in culture: 65 | 1.7 | 1.65 | 1.8 | 1.3 | 0.324 | 0.288 | -0.000428 | 1.65
HCI-010, days in culture: 103 | 3.64 | 3.76 | 3.69 | 2.37 | 0.535 | 0.804 | 0.0524 | 3.28
HCI-016, days in culture: 153 | 2.98 | 1.26 | 2.02 | 0.665 | 0.19 | 0.0767 | 0.0122 | 2.51
HCI-016, days in culture: 172 | 2.04 | 1.45 | 1.73 | 1.29 | 0.194 | 0.0836 | 0.0359 | 1.97
HCI-016, days in culture: 190 | 1.66 | 1.38 | 1.27 | 0.803 | 0.316 | 0.118 | 0.0242 | 1.26
HCI-016, days in culture: 199 | 1.35 | 1.52 | 1.53 | 1.33 | 0.159 | 0.232 | 0.0264 | 1.7

HCI-003.E2
Conditions | CTG-3D luminescence at 96 h
12.5 pM | 2.13
0.00025 µM | 2.46
0.005 µM | 2.07
0.1 µM | 2.22
1 µM | 1.15
10 µM | 0.024
100 µM | -0.00504
625 fM | 2.13

O=C(c1ccc(F)c(F)c1Nc1ccc(I)cc1F)N1CC(O)([C@@H]2CCCCN2)C1 [cobimetinib]
CTG-3D luminescence at 96 h
Conditions | 12.5 pM | 0.00025 µM | 0.005 µM | 0.1 µM | 1 µM | 10 µM | 100 µM | 625 fM
HCI-001, days in culture: 240 | 1.59 | 1.08 | 1.09 | 1.08 | 1.32 | 0.812 | 0.00168 | 1.41
HCI-001, days in culture: 260 | 2.44 | 1.15 | 1.46 | 1.28 | 1.58 | 1.5 | 0.00186 | 1.87
HCI-001, days in culture: 269 | 1.48 | 1.58 | 1.56 | 1.49 | 1.26 | 1.83 | -0.00203 | 1.53
HCI-001, days in culture: 327 | 1.36 | 1.44 | 1.72 | 1.75 | 1.43 | 1.04 | 0.00317 | 1.52
HCI-001, days in culture: 346 | 1.24 | 1.22 | 1.07 | 1.14 | 1.13 | 1.22 | -7.73e-05 | 1.11
HCI-001, days in culture: 364 | 1.35 | 1.27 | 1.3 | 0.986 | 0.9 | 0.905 | 0.000378 | 1.51
HCI-010, days in culture: 52 | 2.3 | 2.56 | 2.39 | 2.62 | 2.15 | 1.67 | 0.00712 | 2.57
HCI-010, days in culture: 65 | 1.64 | 1.75 | 1.83 | 1.67 | 1.6 | 1.18 | 0.00337 | 1.61
HCI-010, days in culture: 103 | 3.83 | 3.96 | 3.78 | 3.21 | 2.72 | 1.92 | 0.00125 | 3.51
HCI-016, days in culture: 153 | 3.32 | 1.63 | 2.26 | 1.1 | 1.56 | 1.38 | 0.0036 | 2.59
HCI-016, days in culture: 172 | 2.03 | 1.92 | 1.82 | 0.984 | 1.38 | 0.776 | 0.0013 | 1.63
HCI-016, days in culture: 190 | 1.55 | 1.08 | 1.45 | 1 | 0.91 | 0.962 | 0.00248 | 1.37
HCI-016, days in culture: 199 | 1.61 | 1.48 | 1.59 | 1.4 | 1.28 | 1.19 | 0.00262 | 1.78

HCI-003.E2
Conditions | CTG-3D luminescence at 96 h
12.5 pM | 2.11
0.00025 µM | 2.48
0.005 µM | 1.98
0.1 µM | 2.18
1 µM | 1.66
10 µM | 1.64
100 µM | 0.00926
625 fM | 1.93

CN(Cc1cnc2nc(N)nc(N)c2n1)c1ccc(C(=O)N[C@@H](CCC(=O)O)C(=O)O)cc1 [methotrexate]
CTG-3D luminescence at 96 h
Conditions | 12.5 pM | 0.00025 µM | 0.005 µM | 0.1 µM | 1 µM | 10 µM | 100 µM | 625 fM
HCI-001, days in culture: 240 | 2.01 | 1.12 | 1.13 | 1.01 | 1.26 | 1.06 | 1.21 | 1.72
HCI-001, days in culture: 260 | 2.08 | 0.984 | 2.27 | 1.47 | 1.43 | 1.62 | 0.88 | 1.26
HCI-001, days in culture: 269 | 1.68 | 1.46 | 1.53 | 1.86 | 1.46 | 2.16 | 2.3 | 1.5
HCI-001, days in culture: 327 | 1.75 | 1.62 | 2.05 | 1.14 | 0.877 | 0.985 | 1.35 | 1.69
HCI-001, days in culture: 346 | 1.53 | 1.34 | 1.28 | 1.02 | 0.965 | 1.41 | 1.19 | 1.2
HCI-001, days in culture: 364 | 1.58 | 1.17 | 1.45 | 0.891 | 0.633 | 1.11 | 0.716 | 1.64
HCI-010, days in culture: 52 | 2.12 | 2.41 | 2.51 | 2.48 | 2.58 | 2.52 | 2.52 | 2.58
HCI-010, days in culture: 65 | 1.6 | 1.77 | 1.79 | 1.86 | 1.86 | 1.72 | 1.46 | 1.8
HCI-010, days in culture: 103 | 3.42 | 3.7 | 4.03 | 2.39 | 2.36 | 2.1 | 1.84 | 3.19
HCI-016, days in culture: 153 | 3.33 | 1.65 | 2.64 | 1.65 | 1.9 | 2.08 | 1.39 | 2.86
HCI-016, days in culture: 172 | 2.17 | 1.68 | 1.56 | 1.51 | 1.49 | 1.25 | 1.41 | 1.71
HCI-016, days in culture: 190 | 1.69 | 1.3 | 1.7 | 0.906 | 1.08 | 1.21 | 1.52 | 0.969
HCI-016, days in culture: 199 | 1.57 | 1.47 | 1.56 | 1.47 | 1.53 | 1.37 | 1.26 | 1.73

HCI-003.E2
Conditions | CTG-3D luminescence at 96 h
12.5 pM | 2.32
0.00025 µM | 2.47
0.005 µM | 2.09
0.1 µM | 2.12
1 µM | 1.83
10 µM | 1.9
100 µM | 1.64
625 fM | 2.12
